Where two headings read alike, the source gives them in different places.
Key:
adenosine A3 receptor = test system: adenosine A3 receptor; set-up: method as in TCAMS annotation; conditions: target annotation in TCAMS; ref TCAMS annotation; cited from earlier work
[1] = test system: P. falciparum asexual stages; conditions: TCAMS data, cited from earlier work
[2] = test system: luciferase reaction (BacTiter-Glo); test: Interference assay (inhibition of the BacTiter-Glo luciferase reaction); assay type: biochemical; set-up: concentration or dose not given beside the values; conditions: ATP interference assay
Method: To discard possible false-positive results, we performed an interference assay in parallel. […] […]. The ATP solution was made by dissolving ATP powder (ATP standard from the ATPlite 1 step assay kit, reference 6016731, Perkin Elmer) in culture medium. The positive control used was the Luciferase Inhibitor I Calbiochem (Merck, 119113) at 100 μM.

HepG2 cells = test: Cytotoxicity in HepG2 cells (intracellular ATP, ATPlite, 48 h); assay type: cell-based, human; conditions: IC50 HepG2 divided by IC50 P. falciparum gametocytes
[3] = as above; assay type: cell-based, human; conditions: human, HepG2 cells; IC50 per ratio column head; unit inferred; read-out: Cytotoxicity in HepG2
[4] = test system: P. falciparum stage V gametocytes; test: Gametocytocidal ATP bioluminescence assay (single point 5 μM and 1 μM, dose-response); assay type: cell-based, Plasmodium falciparum; conditions: for IC50: Plasmodium falciparum

% Control luminiscence [2]: 100%
Structure (SMILES): O=C(Nc1nc(-c2ccccn2)cc2ccccc12)c1cccc(Cl)c1 [TCMDC-123886]
reported as an adenosine A3 receptor ligand (adenosine A3 receptor): ligand
IC50 ([1]; P. falciparum asexual stages, read-out: IC50 (µM) Pf asexual stages): 0.75 µM
IC50 ([1]; asexual stages, read-out: IC50 asexual): 0.754 µM
Ratio IC50 HepG2/IC50 P. falciparum (HepG2 cells): >50
IC50 at 48 h [3]: > 25000 nM
Ratio IC50 HepG2/IC50 P. falciparum ([4]; IC50 HepG2 divided by IC50 P. falciparum gametocytes): >50
IC50 ([4]; P. falciparum gametocytes, average, read-out: IC50 Pf Gametocytes average, IC50 (µM) average): 0.5 µM
IC50 ([4]; sexual stages (gametocytes), dose-response, read-out: IC50 sexual): 0.497 µM

— publication PMC4552634, “A New Set of Chemical Starting Points with Plasmodium falciparum Transmission-Blocking Potential for Antimalarial Drug Discovery” (PLoS ONE, 2015)
